The values below come from PMC9780825, “Combining mKate2-Kv1.3 Channel and Atto488-Hongotoxin for the Studies of Peptide Pore Blockers on Living Eukaryotic Cells” (Toxins, 2022).

For experiment [1], the target named is K-ΔKv1.3 (N-terminally truncated human Kv1.3 tagged with mKate2) (Homo sapiens, UniProt P22001). In words: Fluorescent competitive binding assay (FCBA), displacement of A-HgTx from K-ΔKv1.3. Further details: expressed in transfected cells; host or cells: HEK293 (transient transfection with pmKate2-KCNA3-del).
Description: To quantitatively characterize formation of complexes between A-HgTx and K-ΔKv1.3 on cell membranes, the confocal images of A-HgTx bound at the membrane of the K-ΔKv1.3 presenting cells were subjected to the treatment procedure as follows. Regions of interest (ROIs) corresponding to the plasma membranes stained with K-ΔKv1.3 were selected. Using a set of these ROIs and a threshold procedure (to null a background signal from pixels without K-ΔKv1.3 signal), the binary (0;1) mask that describes membranous localization of K-ΔKv1.3 was created. The images of K-ΔKv1.3 and A-HgTx distribution were multiplied by the corresponding mask. Next, average intensities of fluorescence of K-ΔKv1.3 (Ici) and A-HgTx (Ili) were calculated for each ROI (i.e., for each i-cell), and a ratio Ri was calculated as follows. Ri = (Ili − Ilb)/(Ici − Icb) (1) where Ilb and Icb are intensities of background signals in the fluorescent images of A-HgTx and Kv1.3 channels, respectively. Calculating Ri (i.e., normalizing A-HgTx intensity to that of K-ΔKv1.3), a correction was introduced for variations in a level of K-ΔKv1.3 expression on the membrane of particular cells. Ri values of 15–20 cells were averaged to obtain the Rav value, and a standard deviation was calculated.
Concentration of A-HgTx was 2 nM. Concentration of pore blockers C varied as indicated in the graph.
When Kd of A-HgTx and IC50 for the studied compound are known, the apparent dissociation constant Kap of complexes between the compound and channel can be calculated using the Cheng-Prusoff equation [50]:Kap = IC50/(1 + L/Kd)(4) where L is the concentration of A-HgTx in the competitive binding experiment.
In A-HgTx binding experiments, cells were incubated with A-HgTx (0.15–4 nM) for 30 min (37 °C, 5% CO2) in the complete medium. In competitive binding experiments, cells were incubated with A-HgTx (2 nM) and selected pore blocker at variable concentrations (0.5–100 nM for recombinant peptides and 1–20 mM for TEA) for 30 min (37 °C, 5% CO2) in the complete medium.
Experiments with HEK293 cells were performed with a laser scanning confocal microscope Leica-SP2 (Leica Microsystems GmbH, Wetzlar, Germany). The water-immersion 63×/1.2 NA HCX PL APO objective was used.
Fluorescence of mKate2-fused hKv1.3 was excited at the 561 nm wavelength and recorded in the 650–700 nm range. Fluorescence of A-HgTx was excited at the 488 nm wavelength and recorded in the 495–535 nm range. Distributions of A-HgTx and mKate2 fluorescence in cells were imaged using sequential scanning to avoid interference of intrinsic cellular fluorescence excited at the 488 nm with the mKate2 fluorescence.
Each experimental point in the curves describing interaction A-HgTx with mKate2-tagged Kv1.3 channels is an average over 15–25 treated images of cells. […]
A further experiment deals with Kv1.3 channel. The following applies: whole-cell patch-clamp; mouse channels, L929 mouse fibroblast cells; read-out: Kd (published); cited from earlier work. The source says:
Table 1 The Kap values for the complexes formed by K-ΔKv1.3 with the studied pore blockers and published data on the affinities of these blockers. | column: KTx1; ChTx; AgTx2; TEA

Sequence of K-ΔKv1.3 (N-terminally truncated human Kv1.3 tagged with mKate2) (P22001 53-575 limits assumed, stated change not applied): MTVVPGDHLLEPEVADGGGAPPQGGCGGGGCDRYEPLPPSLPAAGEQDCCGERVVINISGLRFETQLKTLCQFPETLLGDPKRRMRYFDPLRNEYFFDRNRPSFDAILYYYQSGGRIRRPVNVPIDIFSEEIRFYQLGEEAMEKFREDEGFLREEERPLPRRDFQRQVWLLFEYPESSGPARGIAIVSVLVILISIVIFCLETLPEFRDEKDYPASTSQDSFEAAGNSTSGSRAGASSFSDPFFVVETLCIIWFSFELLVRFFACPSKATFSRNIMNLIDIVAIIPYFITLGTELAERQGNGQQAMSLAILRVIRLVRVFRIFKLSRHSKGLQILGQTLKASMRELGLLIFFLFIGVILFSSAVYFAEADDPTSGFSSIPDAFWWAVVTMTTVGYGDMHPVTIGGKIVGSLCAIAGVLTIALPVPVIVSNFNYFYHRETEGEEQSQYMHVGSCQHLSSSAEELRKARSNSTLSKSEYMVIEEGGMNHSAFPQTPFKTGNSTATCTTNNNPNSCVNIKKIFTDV

As to `CC[N+](CC)(CC)CC` [TEA, tetraethylammonium], the Kd was 2 mM in experiment [1] (Cheng-Prusoff from IC50, 2 nM A-HgTx, blockers 0.5–100 nM (peptides) or 1–20 mM (TEA), 30 min, 37 °C, 5% CO2, complete medium, HEK293 cells, mean ± SEM, three independent measurements, read-out: Kap, apparent dissociation constant of complexes formed by K-ΔKv1.3 with pore blocker) and 10 mM on Kv1.3 channel. Moreover, in experiment [1] (FCBA, HEK293 cells, result in words), the “active concentration range (FCBA)” value is listed as “active in the millimolar concentration range”. The “displacement of A-HgTx from the complexes with K-ΔKv1.3” value in experiment [1] (living HEK293 cells, 2 nM A-HgTx, result in words) was “A-HgTx is also displaced”.
